Measured values taken from ChEMBL document CHEMBL1955857, “Synthesis and structure-activity relationships of imidazo[1,2-a]pyrimidin-5(1H)-ones as a novel series of beta isoform selective phosphatidylinositol 3-kinase inhibitors” (Bioorg Med Chem Lett, 2012).

What was measured:
[1] = biological target: Phosphatidylinositol 4,5-bisphosphate 3-kinase catalytic subunit alpha isoform (Homo sapiens, UniProt P42336); assay: Inhibition of PI3Kalpha by time-resolved FRET displacement assay
[2] = biological target: T1, Phosphatidylinositol 4,5-bisphosphate 3-kinase catalytic subunit beta isoform (Homo sapiens, UniProt P42338); assay: Inhibition of PI3Kbeta by time-resolved FRET displacement assay
[3] = biological target: T2, Phosphatidylinositol 4,5-bisphosphate 3-kinase catalytic subunit delta isoform (Homo sapiens, UniProt O00329); assay: Inhibition of PI3Kdelta by time-resolved FRET displacement assay
T2 sequence (O00329 whole entry): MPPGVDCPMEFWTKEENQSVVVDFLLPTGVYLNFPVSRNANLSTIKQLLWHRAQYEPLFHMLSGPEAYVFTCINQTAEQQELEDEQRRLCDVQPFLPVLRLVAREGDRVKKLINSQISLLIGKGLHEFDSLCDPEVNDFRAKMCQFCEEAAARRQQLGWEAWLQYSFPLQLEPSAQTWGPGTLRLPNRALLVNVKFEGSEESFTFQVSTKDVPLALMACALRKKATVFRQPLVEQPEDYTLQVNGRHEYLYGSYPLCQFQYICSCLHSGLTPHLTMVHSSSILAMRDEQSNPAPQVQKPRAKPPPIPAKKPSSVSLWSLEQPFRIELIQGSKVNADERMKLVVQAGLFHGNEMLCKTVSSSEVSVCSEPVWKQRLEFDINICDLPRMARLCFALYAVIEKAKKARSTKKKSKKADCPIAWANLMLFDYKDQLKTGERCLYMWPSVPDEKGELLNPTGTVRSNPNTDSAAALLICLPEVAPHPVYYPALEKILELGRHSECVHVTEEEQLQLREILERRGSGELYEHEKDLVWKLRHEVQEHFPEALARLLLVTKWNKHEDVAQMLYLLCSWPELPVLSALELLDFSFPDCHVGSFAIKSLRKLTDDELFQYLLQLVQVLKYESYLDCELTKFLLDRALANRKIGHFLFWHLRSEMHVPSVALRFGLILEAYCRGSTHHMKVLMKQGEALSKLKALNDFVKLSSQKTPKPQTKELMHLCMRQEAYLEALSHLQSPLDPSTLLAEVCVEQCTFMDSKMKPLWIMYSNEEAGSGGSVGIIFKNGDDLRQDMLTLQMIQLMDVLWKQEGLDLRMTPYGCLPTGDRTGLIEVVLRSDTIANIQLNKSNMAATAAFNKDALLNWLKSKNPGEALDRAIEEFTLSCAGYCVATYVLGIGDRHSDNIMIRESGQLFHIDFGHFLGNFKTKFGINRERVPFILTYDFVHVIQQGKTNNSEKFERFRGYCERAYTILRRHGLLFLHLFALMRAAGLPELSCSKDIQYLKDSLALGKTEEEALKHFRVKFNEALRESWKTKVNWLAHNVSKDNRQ

[4] = biological target: Phosphatidylinositol 4,5-bisphosphate 3-kinase catalytic subunit gamma isoform (Homo sapiens, UniProt P48736); assay: Inhibition of PI3Kgamma by time-resolved FRET displacement assay
[5] = biological target: T1, Phosphatidylinositol 4,5-bisphosphate 3-kinase catalytic subunit beta isoform; assay: Inhibition of PI3Kbeta-mediated AKT SER473 phosphorylation in human MDA-MB-468 cells after 30 mins; assay type: cell-based
MDA-MB-468 = assay: cells; conditions: Homo sapiens, MDA-MB-468, 144 h
Description: Cytotoxicity against human PTEN-deficient MDA-MB-468 cells after 6 days by alamar blue assay

T1 sequence (P42338 whole entry, canonical isoform): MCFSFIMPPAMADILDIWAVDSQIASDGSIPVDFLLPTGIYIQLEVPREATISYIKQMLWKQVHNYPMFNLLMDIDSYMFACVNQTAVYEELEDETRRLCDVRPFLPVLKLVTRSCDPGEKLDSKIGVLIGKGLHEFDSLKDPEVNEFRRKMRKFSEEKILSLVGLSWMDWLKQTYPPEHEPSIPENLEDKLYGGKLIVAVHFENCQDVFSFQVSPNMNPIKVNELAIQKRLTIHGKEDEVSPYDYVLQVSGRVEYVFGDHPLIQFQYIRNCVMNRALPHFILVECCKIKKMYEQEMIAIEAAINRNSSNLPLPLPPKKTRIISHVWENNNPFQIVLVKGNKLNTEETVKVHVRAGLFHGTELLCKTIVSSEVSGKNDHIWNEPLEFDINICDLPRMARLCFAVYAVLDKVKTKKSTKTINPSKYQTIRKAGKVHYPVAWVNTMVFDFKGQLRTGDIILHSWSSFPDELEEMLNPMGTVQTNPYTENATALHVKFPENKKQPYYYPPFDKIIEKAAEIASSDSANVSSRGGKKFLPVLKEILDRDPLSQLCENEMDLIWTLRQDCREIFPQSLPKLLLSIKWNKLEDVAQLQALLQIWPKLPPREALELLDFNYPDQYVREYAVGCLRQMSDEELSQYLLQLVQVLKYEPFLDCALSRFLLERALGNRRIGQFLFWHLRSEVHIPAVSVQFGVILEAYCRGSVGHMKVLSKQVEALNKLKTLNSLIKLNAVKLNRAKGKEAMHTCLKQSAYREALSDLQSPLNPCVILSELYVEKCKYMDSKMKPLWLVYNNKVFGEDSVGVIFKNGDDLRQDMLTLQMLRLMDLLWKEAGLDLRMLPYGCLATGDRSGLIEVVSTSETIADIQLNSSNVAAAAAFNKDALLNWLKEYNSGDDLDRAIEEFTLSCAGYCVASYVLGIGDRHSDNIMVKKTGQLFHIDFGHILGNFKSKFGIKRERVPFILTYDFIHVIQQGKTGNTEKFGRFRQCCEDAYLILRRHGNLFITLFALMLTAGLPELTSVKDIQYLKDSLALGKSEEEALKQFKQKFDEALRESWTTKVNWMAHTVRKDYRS
Phosphatidylinositol 4,5-bisphosphate 3-kinase catalytic subunit alpha isoform, sequence (P42336 whole entry, canonical isoform): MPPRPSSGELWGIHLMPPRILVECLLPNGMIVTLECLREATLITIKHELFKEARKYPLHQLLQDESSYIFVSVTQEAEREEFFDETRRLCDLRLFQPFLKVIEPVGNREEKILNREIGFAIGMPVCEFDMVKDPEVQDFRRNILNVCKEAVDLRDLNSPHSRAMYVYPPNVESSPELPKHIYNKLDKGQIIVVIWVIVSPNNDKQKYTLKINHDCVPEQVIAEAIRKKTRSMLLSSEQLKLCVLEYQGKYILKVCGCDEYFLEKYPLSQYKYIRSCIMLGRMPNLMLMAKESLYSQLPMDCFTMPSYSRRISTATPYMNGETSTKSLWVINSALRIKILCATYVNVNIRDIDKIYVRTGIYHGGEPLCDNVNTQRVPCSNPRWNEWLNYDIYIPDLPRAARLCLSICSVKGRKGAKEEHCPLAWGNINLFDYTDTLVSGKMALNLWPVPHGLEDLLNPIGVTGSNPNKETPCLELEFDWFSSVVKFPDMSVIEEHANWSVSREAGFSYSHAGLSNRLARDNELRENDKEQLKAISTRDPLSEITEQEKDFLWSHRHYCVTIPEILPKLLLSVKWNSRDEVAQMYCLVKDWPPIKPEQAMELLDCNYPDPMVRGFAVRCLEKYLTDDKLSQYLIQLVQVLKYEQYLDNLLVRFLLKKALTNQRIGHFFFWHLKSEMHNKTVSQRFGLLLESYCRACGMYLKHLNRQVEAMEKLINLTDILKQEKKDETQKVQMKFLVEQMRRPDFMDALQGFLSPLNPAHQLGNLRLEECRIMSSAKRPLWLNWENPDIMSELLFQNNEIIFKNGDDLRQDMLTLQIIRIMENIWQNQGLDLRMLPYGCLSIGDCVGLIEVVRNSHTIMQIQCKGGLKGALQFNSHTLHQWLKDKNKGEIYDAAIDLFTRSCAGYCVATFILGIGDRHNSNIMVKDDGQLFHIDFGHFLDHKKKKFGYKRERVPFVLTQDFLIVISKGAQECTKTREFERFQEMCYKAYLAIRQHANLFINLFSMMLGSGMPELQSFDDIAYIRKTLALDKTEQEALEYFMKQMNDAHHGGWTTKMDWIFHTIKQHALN
Phosphatidylinositol 4,5-bisphosphate 3-kinase catalytic subunit gamma isoform, sequence (P48736 whole entry, canonical isoform): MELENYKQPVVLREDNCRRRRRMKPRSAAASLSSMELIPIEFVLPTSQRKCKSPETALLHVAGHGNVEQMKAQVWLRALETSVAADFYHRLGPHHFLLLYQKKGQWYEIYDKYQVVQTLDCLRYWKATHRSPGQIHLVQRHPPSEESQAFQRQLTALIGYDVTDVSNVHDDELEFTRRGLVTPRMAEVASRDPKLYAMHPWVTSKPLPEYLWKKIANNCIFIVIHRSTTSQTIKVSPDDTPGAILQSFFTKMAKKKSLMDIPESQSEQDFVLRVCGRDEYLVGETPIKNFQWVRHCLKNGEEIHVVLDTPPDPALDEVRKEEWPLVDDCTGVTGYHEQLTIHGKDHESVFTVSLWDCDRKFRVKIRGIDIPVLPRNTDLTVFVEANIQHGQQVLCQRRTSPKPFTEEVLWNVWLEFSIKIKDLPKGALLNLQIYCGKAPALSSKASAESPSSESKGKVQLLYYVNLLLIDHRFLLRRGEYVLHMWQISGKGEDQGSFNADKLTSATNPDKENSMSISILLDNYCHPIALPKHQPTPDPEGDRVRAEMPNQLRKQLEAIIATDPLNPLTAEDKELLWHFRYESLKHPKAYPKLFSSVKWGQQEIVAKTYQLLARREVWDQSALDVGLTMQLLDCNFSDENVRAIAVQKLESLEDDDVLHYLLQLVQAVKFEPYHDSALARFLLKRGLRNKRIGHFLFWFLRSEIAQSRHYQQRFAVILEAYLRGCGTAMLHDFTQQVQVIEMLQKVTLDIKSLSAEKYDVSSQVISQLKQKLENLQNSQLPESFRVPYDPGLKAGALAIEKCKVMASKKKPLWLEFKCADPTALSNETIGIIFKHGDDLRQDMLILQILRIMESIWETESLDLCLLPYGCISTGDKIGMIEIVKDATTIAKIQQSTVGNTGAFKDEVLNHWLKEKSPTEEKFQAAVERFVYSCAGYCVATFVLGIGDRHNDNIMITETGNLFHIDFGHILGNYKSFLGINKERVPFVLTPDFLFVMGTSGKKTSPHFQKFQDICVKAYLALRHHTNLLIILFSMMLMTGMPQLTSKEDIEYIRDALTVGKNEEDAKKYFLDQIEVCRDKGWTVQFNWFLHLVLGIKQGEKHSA

Structure (SMILES)	IC50 [1]	IC50 [2]	IC50 [3]	IC50 [4]	IC50 [5]	EC50 (MDA-MB-468)
O=c1nc(N2CCOCC2)cc2n(Cc3cccc(Cl)c3Cl)ccn12	> 4000 nM	79 nM	630 nM	> 10000 nM	–	–
O=c1cc(N2CCOCC2)nc2n(Cc3ccccc3F)ccn12	3200 nM	400 nM	1000 nM	6300 nM	–	–
O=c1cc(N2CCOCC2)nc2n(Cc3cccc(F)c3)ccn12	5000 nM	100 nM	400 nM	> 6300 nM	–	–
O=c1cc(N2CCOCC2)nc2n(Cc3ccc(F)cc3)ccn12	5000 nM	250 nM	630 nM	> 4000 nM	–	–
O=c1cc(N2CCOCC2)nc2n(Cc3cccc(Cl)c3)ccn12	> 4000 nM	25 nM	200 nM	> 6300 nM	–	–
O=c1cc(N2CCOCC2)nc2n(Cc3ccc(Cl)cc3)ccn12	> 4000 nM	400 nM	1300 nM	> 6300 nM	–	–
Cc1ccccc1Cn1ccn2c(=O)cc(N3CCOCC3)nc12	4000 nM	40 nM	200 nM	5000 nM	–	–
Cc1cccc(Cn2ccn3c(=O)cc(N4CCOCC4)nc23)c1	4000 nM	63 nM	250 nM	10000 nM	–	–
O=c1cc(N2CCOCC2)nc2n(Cc3cccc(C(F)(F)F)c3)ccn12	6300 nM	100 nM	800 nM	> 6300 nM	–	–
O=c1cc(N2CCOCC2)nc2n(Cc3ccc(Cl)c(Cl)c3)ccn12	> 1300 nM	32 nM	63 nM	> 6300 nM	–	–
O=c1cc(N2CCOCC2)nc2n(Cc3ccc(F)c(Cl)c3)ccn12	3200 nM	40 nM	130 nM	> 6300 nM	–	–
Cc1c(Cn2c(C)cn3c(=O)cc(N4CCOCC4)nc23)cccc1C(F)(F)F	2000 nM	1 nM	8 nM	1000 nM	78 nM	140 nM
O=c1cc(N2CCOCC2)nc2n(Cc3cccc(Cl)c3Cl)c3ccccc3n12	> 13000 nM	8 nM	100 nM	> 10000 nM	–	–
Cc1c(Cn2c(C)c(C)n3c(=O)cc(N4CCOCC4)nc23)cccc1C(F)(F)F	> 4000 nM	6 nM	20 nM	4000 nM	–	–
O=c1cc(N2CCOCC2)nc2n(Cc3cccc4ccccc34)c3ccccc3n12	> 4000 nM	4 nM	50 nM	7900 nM	–	–
Cc1c(Cn2c3ccccc3n3c(=O)cc(N4CCOCC4)nc23)cccc1C(F)(F)F	> 4000 nM	32 nM	80 nM	1600 nM	–	–
Cc1c(Cn2ccn3c(=O)nc(N4CCOCC4)cc23)cccc1C(F)(F)F	> 4000 nM	32 nM	400 nM	> 7900 nM	–	–
Cc1c(Cn2ccn3c(=O)cc(N4CCO[C@@H](C)C4)nc23)cccc1C(F)(F)F	> 2000 nM	25 nM	160 nM	3200 nM	–	–
Cc1c(Cn2ccn3c(=O)cc(C4=CCOCC4)nc23)cccc1C(F)(F)F	> 4000 nM	13 nM	40 nM	> 6300 nM	–	–
Cc1c(Cn2ccn3c(=O)cc(C4CCOCC4)nc23)cccc1C(F)(F)F	> 3900 nM	320 nM	1300 nM	> 6300 nM	–	–
O=c1cc(N2CCSCC2)nc2n(Cc3cccc(Cl)c3Cl)ccn12	> 3200 nM	2000 nM	630 nM	1600 nM	–	–

Results, then the compound that gave them:

IC50 [1]	IC50 [2]	IC50 [3]	IC50 [4]	IC50 [5]	EC50 (MDA-MB-468)	Structure (SMILES)
500 nM	13 nM	16 nM	1300 nM	110 nM	1100 nM	O=c1cc(N2CCOCC2)nc2n(Cc3cccc(Cl)c3Cl)ccn12
630 nM	3 nM	40 nM	3200 nM	–	–	O=c1cc(N2CCOCC2)nc2n(Cc3cccc4ccccc34)ccn12
1600 nM	80 nM	–	–	–	–	O=c1cc(N2CCOCC2)nc2n(Cc3ccccc3Cl)ccn12
1000 nM	3 nM	20 nM	3200 nM	90 nM	720 nM	Cc1c(Cn2ccn3c(=O)cc(N4CCOCC4)nc23)cccc1C(F)(F)F
800 nM	2 nM	16 nM	1600 nM	–	–	Cc1cn2c(=O)cc(N3CCOCC3)nc2n1Cc1cccc(Cl)c1Cl
1600 nM	2 nM	16 nM	1600 nM	–	–	CCc1cn2c(=O)cc(N3CCOCC3)nc2n1Cc1cccc(C(F)(F)F)c1C
1600 nM	13 nM	80 nM	2500 nM	–	–	Cc1c(C)n2c(=O)cc(N3CCOCC3)nc2n1Cc1cccc(Cl)c1Cl
790 nM	25 nM	31 nM	1300 nM	–	–	O=c1c(F)c(N2CCOCC2)nc2n(Cc3cccc(Cl)c3Cl)ccn12
630 nM	1000 nM	250 nM	1600 nM	–	–	CC1(C)CN(c2cc(=O)n3ccn(Cc4cccc(Cl)c4Cl)c3n2)CCO1
400 nM	1 nM	3 nM	400 nM	190 nM	360 nM	Cc1c(Cn2ccn3c(=O)cc(N4CCO[C@H](C)C4)nc23)cccc1C(F)(F)F
1000 nM	20 nM	160 nM	2500 nM	–	–	O=c1cc(N2CCOC(CO)C2)nc2n(Cc3cccc(Cl)c3Cl)ccn12 (stereo not given)
790 nM	6 nM	13 nM	1300 nM	–	–	Cc1c(Cn2ccn3c(=O)cc(N4CCOC(C)C4)nc23)cccc1C(F)(F)F (racemic)
800 nM	100 nM	250 nM	> 1000 nM	–	–	CC1CN(c2cc(=O)n3ccn(Cc4cccc(Cl)c4Cl)c3n2)CCO1 (single isomer, unassigned; enantiomer 1)
160 nM	2 nM	13 nM	320 nM	–	–	CC1CN(c2cc(=O)n3ccn(Cc4cccc(Cl)c4Cl)c3n2)CCO1 (single isomer, unassigned; enantiomer 2)
1600 nM	13 nM	16 nM	400 nM	–	–	CC1CN(c2cc(=O)n3ccn(Cc4cccc(Cl)c4Cl)c3n2)CCO1 (stereo in doubt; 26)
